Test results: patent US8946438B2, “Benzamides, production thereof, and use thereof as medicaments” (Boehringer Ingelheim International GmbH, priority 2008, dated 2015)

Target: p38 MAP-kinase (Homo sapiens, UniProt Q16539)
Assay: Enzymatic assay: inhibition of p38 MAP-kinase (phosphorylation of GST-tagged ATF2, chemoluminescence bead readout)
Format: biochemical
Conditions: inhibitor 1 μM; activated p38 MAP-kinase 1 nM; 4 h preincubation; ATP 100 μM; ATF2 10 nM; read-out: % inhibitory effect at 1 μM
Method in brief: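 Activated human p38 MAP-kinase (1 nM) preincubated 4 h at ambient temperature with compound at 1 μM in HEPES pH 7, MgCl2, DTT, Tween20. Then reacted 1 h with GST-ATF2 (10 nM) and ATP (100 μM). Phospho-ATF2 read by bead chemoluminescence at 520-620 nm, given as % inhibition at 1 μM versus kinase-free background.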

Chain of p38 MAP-kinase (Q16539 whole entry): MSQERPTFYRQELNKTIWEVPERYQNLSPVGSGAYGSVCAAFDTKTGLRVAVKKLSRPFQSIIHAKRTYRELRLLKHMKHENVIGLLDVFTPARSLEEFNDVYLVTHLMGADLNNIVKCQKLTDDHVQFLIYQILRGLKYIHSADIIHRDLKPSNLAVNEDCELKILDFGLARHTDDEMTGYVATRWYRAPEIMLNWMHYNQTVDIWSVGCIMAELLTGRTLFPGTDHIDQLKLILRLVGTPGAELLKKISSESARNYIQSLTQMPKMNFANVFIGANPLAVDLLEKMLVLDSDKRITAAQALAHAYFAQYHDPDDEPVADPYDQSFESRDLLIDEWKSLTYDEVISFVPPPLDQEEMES

inhibition at 1 µM | SMILES
97% | COc1c(NC(=O)c2ccc(C)c(Oc3ccnc(CN4CCN(C)CC4)n3)c2)cc(C(C)(C)C)cc1[S+](C)[O-] (stereo not drawn) [13(1), N-(5-tert-butyl-3-methanesulphinyl-2-methoxy-phenyl)-4-methyl-3-[2-(4-methyl-piperazin-1-ylmethyl)-pyrimidin-4-yloxy]-benzamide]
90.8% | COc1c(NC(=O)c2ccc(C)c(Oc3cc[n+]([O-])cc3)c2)cc(C(C)(C)C)cc1NS(C)(=O)=O [Example 1, N-(5-tert-butyl-3-methanesulphonylamino-2-methoxy-phenyl)-4-methyl-3-(1-oxy-pyridin-4-yloxy)-benzamide]
97.7% | COc1c(NC(=O)c2ccc(C)c(Oc3ccncc3)c2)cc(C(C)(C)C)cc1NS(C)(=O)=O [Example 2, N-(5-tert-butyl-3-methanesulphonylamino-2-methoxy-phenyl)-4-methyl-3-(pyridin-4-yloxy)-benzamide]
98.1% | CNc1nccc(Oc2cc(C(=O)Nc3cc(C(C)(C)C)cc(NS(C)(=O)=O)c3OC)ccc2C)n1 [Example 3, N-(5-tert-butyl-3-methanesulphonylamino-2-methoxy-phenyl)-4-methyl-3-(2-methylamino-pyrimidin-4-yloxy)-benzamide]
97.7% | COc1c(NC(=O)c2ccc(C)c(Oc3ccnc(NCCN4CCCC4)n3)c2)cc(C(C)(C)C)cc1NS(C)(=O)=O [Example 4, N-(5-tert-butyl-3-methanesulphonylamino-2-methoxy-phenyl)-4-methyl-3-[2-(2-pyrrolidin-1-yl-ethylamino)-pyrimidin-4-yloxy]-benzamide]
99% | COc1c(NC(=O)c2ccc(C)c(Oc3ccnc(N4CCNCC4)n3)c2)cc(C(C)(C)C)cc1NS(C)(=O)=O [Example 5, N-(5-tert-butyl-3-methanesulphonylamino-2-methoxy-phenyl)-4-methyl-3-(2-piperazin-1-yl-pyrimidin-4-yloxy)-benzamide x trifluoroacetic acid]
94.4% | COc1c(NC(=O)c2cc(C)cc(Oc3ccncc3)c2)cc(C(C)(C)C)cc1NS(C)(=O)=O [Example 6, N-(5-tert-butyl-3-methanesulphonylamino-2-methoxy-phenyl)-3-methyl-5-(pyridin-4-yloxy)-benzamide]
95.6% | CNC(=O)c1cc(Oc2cc(C(=O)Nc3cc(C(C)(C)C)cc(NS(C)(=O)=O)c3OC)ccc2C)ncn1 [Example 7, 6-[5-(5-tert-butyl-3-methanesulphonylamino-2-methoxy-phenylaminocarbonyl)-2-methyl-phenoxy]-pyrimidin-4-carboxylic acid-methylamide]
95% | COc1c(NC(=O)c2ccc(C)c(Oc3cc(CN4CCOCC4)ncn3)c2)cc(C(C)(C)C)cc1NS(C)(=O)=O [Example 8, N-(5-tert-butyl-3-methanesulphonylamino-2-methoxy-phenyl)-4-methyl-3-(6-morpholin-4-ylmethyl-pyrimidin-4-yloxy)-benzamide]
98.4% | COc1c(NC(=O)c2ccc(C)c(Oc3cc(CC4CCN(C)CC4)ncn3)c2)cc(C(C)(C)C)cc1NS(C)(=O)=O [Example 9, N-(5-tert-butyl-3-methanesulphonylamino-2-methoxy-phenyl)-4-methyl-3-[6-(1-methyl-piperidin-4-ylmethyl)-pyrimidin-4-yloxy]-benzamide]
99.6% | COc1c(NC(=O)c2ccc(Cl)c(Oc3ccnc(NC4CCN(C)CC4)c3)c2)cc(C(C)(C)C)cc1NS(C)(=O)=O [Example 10, N-(5-tert-butyl-3-methanesulphonylamino-2-methoxy-phenyl)-4-chloro-3-[2-(1-methyl-piperidin-4-ylamino)-pyridin-4-yloxy]-benzamide]

Second part, the compound before the results:

SMILES | inhibition at 1 µM
CCCCC(=O)Nc1cc(C(C)(C)C)cc(NC(=O)c2ccc(C)c(Oc3ccnc(CC4CCNCC4)c3)c2)c1OC [11(2), N-(5-tert-butyl-2-methoxy-3-pentanoylamino-phenyl)-4-methyl-3-(2-piperidin-4-ylmethyl-pyridin-4-yloxy)-benzamide] | 95.4%
COc1c(NC(=O)c2ccc(C)c(Oc3ccnc(CC4CCNCC4)c3)c2)cc(C(C)(C)C)cc1S(C)(=O)=O [11(3), N-(5-tert-butyl-3-methanesulphonyl-2-methoxy-phenyl)-4-methyl-3-(2-piperidin-4-ylmethyl-pyridin-4-yloxy)-benzamide] | 99.5%
COc1c(NC(=O)CC(C)C)cc(C(C)(C)C)cc1NC(=O)c1ccc(C)c(Oc2ccnc(CC3CCNCC3)c2)c1 [11(4), N-[5-tert-butyl-2-methoxy-3-(3-methyl-butyrylamino)-phenyl]-4-methyl-3-(2-piperidin-4-ylmethyl-pyridin-4-yloxy)-benzamide] | 95.1%
COc1c(NC(=O)c2ccc(Cl)c(Oc3cc(CN4CCN(C)CC4)ncn3)c2)cc(C(C)(C)C)cc1NS(C)(=O)=O [12(1), N-(5-tert-butyl-3-methanesulphonylamino-2-methoxy-phenyl)-4-chloro-3-[6-(4-methyl-piperazin-1-ylmethyl)-pyrimidin-4-yloxy]-benzamide] | 99.4%
COc1c(NC(=O)c2ccc(Cl)c(Oc3cc(CC4CCN(C)CC4)ncn3)c2)cc(C(C)(C)C)cc1NS(C)(=O)=O [12(2), N-(5-tert-butyl-3-methanesulphonylamino-2-methoxy-phenyl)-4-chloro-3-[6-(1-methyl-piperidin-4-ylmethyl)-pyrimidin-4-yloxy]-benzamide] | 98.7%
COc1c(NC(=O)c2ccc(Cl)c(Oc3ccnc(CC4CCN(C)CC4)n3)c2)cc(C(C)(C)C)cc1NS(C)(=O)=O [12(3), N-(5-tert-butyl-3-methanesulphonylamino-2-methoxy-phenyl)-4-chloro-3-[2-(1-methyl-piperidin-4-ylmethyl)-pyrimidin-4-yloxy]-benzamide] | 99.6%
COc1c(NC(=O)c2ccc(Cl)c(Oc3ccnc(CN4CCN(C)CC4)c3)c2)cc(C(C)(C)C)cc1NS(C)(=O)=O [12(4), N-(5-tert-butyl-3-methanesulphonylamino-2-methoxy-phenyl)-4-chloro-3-[2-(4-methyl-piperazin-1-ylmethyl)-pyridin-4-yloxy]-benzamide] | 99.3%
COc1c(NC(=O)c2ccc(Cl)c(Oc3ccnc(CC4CCN(C)CC4)c3)c2)cc(C(C)(C)C)cc1NS(C)(=O)=O [12(5), N-(5-tert-butyl-3-methanesulphonylamino-2-methoxy-phenyl)-4-chloro-3-[2-(1-methyl-piperidin-4-ylmethyl)-pyridin-4-yloxy]-benzamide] | 99.5%
COc1c(NC(=O)c2ccc(C)c(Oc3ccnc(CC4CCCN(C)CC4)n3)c2)cc(C(C)(C)C)cc1NS(C)(=O)=O (stereo not drawn) [12(6), N-(5-tert-butyl-3-methanesulphonylamino-2-methoxy-phenyl)-4-methyl-3-[2-(1-methyl-azepan-4-ylmethyl)-pyrimidin-4-yloxy]-benzamide] | 99.6%
COc1c(NC(=O)c2ccc(C)c(Oc3cc(CC4CCCN(C)CC4)ncn3)c2)cc(C(C)(C)C)cc1NS(C)(=O)=O (stereo not drawn) [12(7), N-(5-tert-butyl-3-methanesulphonylamino-2-methoxy-phenyl)-4-methyl-3-[6-(1-methyl-azepan-4-ylmethyl)-pyrimidin-4-yloxy]-benzamide] | 99.8%
